# Laboratory results published in patent publication US8557864B2, “Agent having neurotrophic factor-like activity” (Nagoya Industrial Science Research Institute, priority 2007, dated 2013).
# Assays:
# Format in all cases: in vivo
# [1] = test system: mice under chronic mild stress; assay: Elevated plus maze test after completion of stress
# Experimental: In this test, an anxiety level can be evaluated from the time for being the open arm, and a behavior amount can be evaluated from the number of times of entering the closed arm. From the evaluations, when a mouse has an anxiety symptom (condition), the time for being in the open arm […], and thus, a level of the anxiety symptom (condition) can be evaluated from the length of the time. FIGS. 8 to 11 show the results.
# Example 2 is a behavior test in which the compound 8 was administered to a mouse as well as stress was applied and a suppression effect of the compound 8 on depressive and anxiety symptoms of the mouse was examined. On the other hand, the present example is a behavior test in which only stress was applied for 3 weeks without administering the compound 8 and stress was completed and a therapeutic effect of the compound 8 on depressive and anxiety symptoms of a mouse after removing stress was examined. Stress was applied to a mouse in the same manner as in Example 2. For behavior tests of mice, the burying the glass-marbles test, the tail suspension test and the elevated plus maze test were performed respectively in the same manners as in Example 2 on groups without administering the compound 8 immediately after completion of stress for 3 weeks and groups without administering the compound 8 with no stress from the start (hereinafter referred to as “non-administration groups after completion of stress”); a group administered with the compound 8 for 1 week after completion of stress and a group administered with the compound 8 for 1 week in the same manner as the former group with no stress from the start (hereinafter referred to as “1 week-administration groups after completion of stress”); and a group administered with the compound 8 for 2 weeks after completion of stress and a group administered with the compound 8 for 2 weeks in the same manner as the former group with no stress from the start (hereinafter referred to as “2 week-administration groups after completion of stress”). […]
# [2] = Measurement of weights of mice after completion of stress; details: 500 μg/kg for 1 week after completion of stress
# Excerpt: A weight of a mouse before stress was subtracted from of the weight of the mouse immediately after completion of stress for 3 weeks without administering the compound 8 and the weight of the mouse after administering the compound 8 for 1 week after completion of stress, respectively, to obtain weight gaps (g). FIGS. 29 and 30 show the results. Although doses are described in FIG. 29, the compound 8 was not administered as described above, and mice corresponding to each of the administration groups administered with the compound 8 for 1 week after completion of stress are only shown.
# mice = assay: Novel object recognition test on mice; details: 100 and 500 μg/kg intraperitoneally, healthy mice, test started after 2 hours
# Experimental: A promotion activity of brain functions due to the compound 8 was examined using a novel object recognition test. The novel object recognition test is a method of evaluating memory and learning abilities from behaviors after showing a “familiar object” and a “novel object” to mice, utilizing the fact that the mice take exploration behaviors (behaviors such as coming closer to or smelling an object) when they find the “novel object”.
# The compound 8 was dissolved in 0.1% DMSO to adjust a concentration so as to have each dose of 100 and 500 μg/kg and intraperitoneally injected to 6 mice in every administration example each in a dose of 0.25 mL. In a 0 μg/kg weight administration example of a control, 0.25 mL of a phosphoric acid buffer containing 0.1% DMSO was intraperitoneally injected. The compound 8 was administered to mice and the novel object recognition test was performed after 2 hours. That is, a mouse was put in a place where two identical objects were present for 15 minutes to let the mouse memorize the two objects (these two objects will be “familiar objects”). After the elapse of 1 day, an exploration behavior test in which the mouse was put in a place where the “familiar objects and “novel objects” were present was carried out for 10 minutes FIG. 33 show the results. Significance tests were performed in a Student's t-test (*) and a Turkey's test (##). […]
smiles,measurement,setting,value
"CCCCCCC/C=C/C(=O)OCC [Compound 8, trans-2-decenoic acid ethyl ester]","time for being in open arm, stressed vs non-stressed example","[1]; 500 μg/kg, 1 week-administration groups after completion of stress",no significant difference
same,number of times of entering closed arm (behavior amount),"[1]; 1 week- and 2 week-administration groups after completion of stress, vs controls (0 μg/kg) and stressed vs non-stressed",no significant difference
same,"time for being in open arm, stressed vs non-stressed example","[1]; all administration examples, 2 week-administration group after completion of stress",no significant difference
same,"weight gap, stressed vs non-stressed example",[2],no significant difference
same,recognition index of novel objects,mice,became high
